Data on seven compounds can be found in US12043600B2, “Microbiocidal compounds” (SYNGENTA CROP PROTECTION AG, priority 2018, dated 2024).

Series [1] deals with Glomerella lagenarium (Colletotrichum lagenarium). Kind of series: Glomerella lagenarium (Colletotrichum lagenarium)/Liquid Culture (Anthracnose). It is filed as cell-based. The note with it: Colletotrichum orbiculare, liquid culture, compared to untreated control.
The next series has as its system Plasmopara viticola. Nature of the series: whole plant or invertebrate. The note with it: foliar, read-out: control of Plasmopara viticola. The format is in vivo.
Series [2] concerns Phaeosphaeria nodorum (Septoria nodorum). Nature of the series: Phaeosphaeria nodorum (Septoria nodorum)/Wheat/Leaf Disc Preventative (Glume Blotch). The format is in vivo. The note with it: Parastagonospora nodorum, foliar, wheat leaf disc preventative, compared to untreated control. A digest of the protocol:
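Preventative test: compound spray first, then spore inoculation after 2 days on cv. Kanzler wheat leaf segments. Incubation in a climate cabinet at 20 °C and 75% rh under a 12 h light/12 h dark cycle. Activity rated as % control relative to untreated discs at 5–7 days post-application.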

Series [3] deals with Blumeria graminis f. sp. tritici (Erysiphe graminis f. sp. tritici). Nature of the series: Blumeria graminis f. sp. tritici/Wheat/Leaf Disc Preventative (Powdery Mildew on Wheat). The format is in vivo. The note with it: foliar, wheat leaf disc preventative, compared to untreated control. A digest of the protocol: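 Preventative leaf-disc test: percent disease control versus untreated leaf segments read 6-8 days post-application. Compound spray applied to wheat cv. Kanzler segments on agar one day before shaking infected plants over them; incubation at 20° C and 60% rh, 24 h darkness then 12 h light/12 h dark cycles.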

The subject of another series is Phakopsora pachyrhizi. Nature of the series: Phakopsora pachyrhizi/Soybean/Preventative (Soybean Rust). The format is in vivo. The note with it: 288 h.
Series [4] deals with Puccinia recondita f. sp. tritici. Kind of series: Puccinia recondita f. sp. tritici/Wheat/Leaf Disc Curative (Brown Rust). It is filed as in vivo. The note with it: foliar, wheat leaf disc curative, compared to untreated control. In short, it runs like this: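 Formulated compound, diluted in water, is applied to inoculated wheat cv. Kanzler leaf segments on agar one day post-inoculation (pre-incubation dark, 19° C, 75% rh). After 6-8 days at 19° C, 75% rh and 12 h/12 h light, activity is rated as percent disease control relative to untreated segments.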

The next series concerns Alternaria solani. Nature of the series: Alternaria solani/Tomato/Leaf Disc (Early Blight). The format is in vivo. The note with it: foliar, tomato leaf disc, compared to untreated control. In short, it runs like this:
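Protective leaf-disc test: compound sprayed onto tomato cv. Baby disks, spore inoculation following after 2 days. Disks kept at 80% rh, 12/12 h light/dark, 23° C. day and 21° C. night; activity read as percent disease control relative to untreated checks 5-7 days post-application.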

In another series the test system is Phytophthora infestans. Nature of the series: whole plant or invertebrate. The format is in vivo. The note with it: in Solanum lycopersicum, foliar, read-out: control of Phytophthora infestans.
The test system of series [5] is Puccinia recondita f. sp. tritici. Kind of series: Puccinia recondita f. sp. tritici/Wheat/Leaf Disc Preventative (Brown Rust). The format is in vivo. The note with it: foliar, 200 ppm, wheat leaf disc preventative, compared to untreated control, read-out: control of Puccinia recondita f. sp. tritici.
The subject of series [6] is Monographella nivalis (Microdochium nivale). Kind of series: Monographella nivalis (Microdochium nivale)/Liquid Culture (Foot Rot Cereals). It is filed as cell-based. The note with it: liquid culture, compared to untreated control. A digest of the protocol:
(§1)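 Liquid-culture format using potato dextrose broth inoculated directly with cryopreserved conidia, dosed with compound from a DMSO solution.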

Series [7] concerns Botryotinia fuckeliana (Botrytis cinerea). Nature of the series: Botryotinia fuckeliana (Botrytis cinerea)/Liquid Culture (Gray Mould). The format is cell-based. The note with it: liquid culture, compared to untreated control. Here is the method:
Conidia of the fungus from cryogenic storage are directly mixed into nutrient broth (Vogels broth). After placing a (DMSO) solution of test compound into a microtiter plate (96-well format), the nutrient broth containing the fungal spores is added.

The subject of series [8] is Mycosphaerella graminicola (Septoria tritici). Nature of the series: Mycosphaerella graminicola (Septoria tritici)/Liquid Culture (Septoria Blotch). The note with it: Zymoseptoria tritici; 20 ppm; liquid culture; compared to untreated control. The format is cell-based. A digest of the protocol: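 Results given as % disease control: test compound in DMSO was placed in wells first, then potato dextrose broth carrying cryostored fungal conidia was added.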

The subject of series [9] is Thanatephorus cucumeris (Rhizoctonia solani). Kind of series: Thanatephorus cucumeris (Rhizoctonia solani)/Liquid Culture (Foot Rot, Damping-Off). The format is cell-based. The note with it: liquid culture, compared to untreated control. Here is the method: Mycelia fragments of a newly grown liquid culture of the fungus are directly mixed into nutrient broth (PDB potato dextrose broth). After placing a (DMSO) solution of the test compounds into a microtiter plate (96-well format), the nutrient broth containing the fungal material is added.

Series [10] has as its system Magnaporthe grisea (Pyricularia oryzae). Nature of the series: whole plant or invertebrate. It is filed as in vivo. The note with it: foliar, read-out: control of Magnaporthe grisea.
In series [11] the test system is Mycosphaerella arachidis (Cercospora arachidicola). Kind of series: Mycosphaerella arachidis (Cercospora arachidicola)/Liquid Culture (Early Leaf Spot). It is filed as cell-based. The note with it: liquid culture, compared to untreated control. A digest of the protocol:
as §1

For another series, the system named is Pyrenophora teres. Kind of series: Pyrenophora teres/Barley/Leaf Disc Preventative (Net Blotch). It is filed as in vivo. The note with it: foliar, 200 ppm, barley leaf disc preventative, compared to untreated control, read-out: control of Pyrenophora teres. A digest of the protocol:
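Preventative leaf-disc test: inoculation with fungal spores took place 2 days after spraying segments of barley cv. Hasso, placed on agar, with water-diluted formulated compound. Read-out is % disease control per compound.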

Series [12] can be described thus: Photostability assay (Atlas Suntest). The format is physicochemical. The note with it: Suntest 750 W/m^2, spotted on microscope slides. Here is the method:
The testing method to measure the photostability data of each compound in table is D1 is as specifically described below. The objective of the photostability assay was to determine the stability of the individual test compounds in a strictly controlled and reproducible environment allowing a comparison of their photostability.
Method: Compounds were dissolved in methanol (HPLC grade) to give 1 g/L stock solutions. Compound stock solution (2 μl) was spotted onto microscope slides in a 3D printed holder and put into the Atlas Suntest. The spectral output power of the Suntest was set to 750 W/m^2, which is considered typical of the daily maximum (noon) irradiance level on a very bright British Summer day. At specific time points slides were removed from the Suntest and placed in 4D vials. Wash solvent made up of 50:40:10 H2O:MeCN:THF (1 mL) is then added to the vials and whirlimixed. The resulting solution is then subsampled to an HPLC vial to be analysed. A Waters UPLC system with Photodiode Array was used with a Waters reverse phase column (BEH C18, 100×2.1 mm×1.7 μm) and acetonitrile (HPLC grade) acidified water (0.2% formic acid) mobile phase at a flow rate of 0.6 mL/min. Peak detection was at the optimum wavelength and peak areas were used for quantification
Initial and subsequent measurements of peak area attributable to the test compound were used to provide a % parent remaining at 3 hours.

Where [13] appears, read: foliar, soybean leaf disc preventative, compared to untreated control, read-out: control of Phakopsora pachyrhizi.

By inhibition of growth is commonly meant the relative decrease from the control value, in per cent. In general, melting point refers to the temperature of the solid-liquid transition.

Where two headings read alike, the source gives them in different places.

For `CO/C=C(\Oc1cc(-n2cc(C3CCCC3)cn2)ccc1C)C(=O)OC` [Compound E-58, methyl (Z)-2-[5-(4-cyclopentylpyrazol-1-yl)-2-methyl-phenoxy]-3-methoxy-prop-2-enoate], the inhibition of growth at 20 ppm in series [1], in series [6], in series [7], in [8], in series [9] and in [11] was at least 80% each time. The pest or weed control at 200 ppm in the series on Plasmopara viticola is at least 80%; in series [2], at least 80%; in series [3], at least 80%; in the series with Phakopsora pachyrhizi (setting [13]), at least 50%; in [4] it was at least 80%; in the series with Alternaria solani, at least 80%. Also, the pest or weed control at 200 ppm (in the series with Phytophthora infestans; in [5]; in series [10]) was at least 80% in each case.

Regarding `CO/C=C(\Oc1cc(-n2ccc(C(C)=NOC)n2)ccc1C)C(=O)OC` [Compound E-30, methyl (Z)-3-methoxy-2-[5-[3-(N-methoxy-C-methyl-carbonimidoyl)pyrazol-1-yl]-2-methyl-phenoxy]prop-2-enoate], the melting point is 130 to 133 °C. The inhibition of growth at 20 ppm in series [1] is at least 80%. In addition, in the series on Plasmopara viticola, the pest or weed control at 200 ppm was at least 80%. Moreover, in [2], the pest or weed control at 200 ppm was at least 80%. The pest or weed control at 200 ppm in the series on Phakopsora pachyrhizi (setting [13]) is at least 50%. The same compound came in with a pest or weed control at 200 ppm in series [4] of at least 80%. The pest or weed control at 200 ppm in the series with Alternaria solani was at least 80%. Besides, the pest or weed control at 200 ppm with Phytophthora infestans was at least 80%. Moreover, the pest or weed control at 200 ppm in [5] is at least 80%. In series [6], the inhibition of growth at 20 ppm is at least 80%. The inhibition of growth at 20 ppm in series [7] was at least 80%. In series [8], this compound gave an inhibition of growth at 20 ppm of at least 80%. In addition, the inhibition of growth at 20 ppm in series [9] is at least 80%. For the same compound, the pest or weed control at 200 ppm in [10] is at least 80%. In series [11], this compound showed an inhibition of growth at 20 ppm of at least 80%.

`CO/C=C(\Oc1cc(-n2ccc(C3=CCCCC3)n2)ccc1C)C(=O)OC` [Compound E-39, methyl (Z)-2-[5-[3-(cyclohexen-1-yl)pyrazol-1-yl]-2-methyl-phenoxy]-3-methoxy-prop-2-enoate] displayed a melting point of 108 to 110 °C. Besides, the inhibition of growth at 20 ppm in series [1] was at least 80%. In addition, the pest or weed control at 200 ppm with Plasmopara viticola was at least 80%. For the same compound, the pest or weed control at 200 ppm in series [3] was at least 80%. In [4], the pest or weed control at 200 ppm was at least 80%. The compound further yielded a pest or weed control at 200 ppm in the series on Alternaria solani of at least 80%. In addition, the pest or weed control at 200 ppm in the series on Phytophthora infestans is at least 80%. The pest or weed control at 200 ppm in series [5] is at least 80%. For the same compound, in [6], the inhibition of growth at 20 ppm is at least 80%. Besides, in [7], the inhibition of growth at 20 ppm is at least 80%. This compound also displayed an inhibition of growth at 20 ppm in [8] of at least 80%. Besides, the inhibition of growth at 20 ppm in series [9] was at least 80%. The pest or weed control at 200 ppm with Pyrenophora teres was at least 80%. Also, the pest or weed control at 200 ppm in [10] is at least 80%. In series [11], this compound showed an inhibition of growth at 20 ppm of at least 80%.

For the compound `CO/C=C(\Oc1cccc(-n2cccc2)c1)C(=O)OC` [Compound X-1, reference compound], the pest or weed control at 0.6 ppm with Phakopsora pachyrhizi (Phakopsora pachyrhizi (Soybean rust), 0.6 ppm) turned out to be 0%. The compound further had a pest or weed control at 2 ppm in the series on Phakopsora pachyrhizi (Phakopsora pachyrhizi (Soybean rust), 2 ppm) of 0%. Besides, in the series on Phakopsora pachyrhizi (Phakopsora pachyrhizi (Soybean rust), 6 ppm), the pest or weed control at 6 ppm worked out at 0%. The pest or weed control at 20 ppm with Phakopsora pachyrhizi (Phakopsora pachyrhizi (Soybean rust), 20 ppm) amounted to 10%. The pest or weed control at 60 ppm in the series on Phakopsora pachyrhizi (Phakopsora pachyrhizi (Soybean rust), 60 ppm) turned out to be 10%. Further, the pest or weed control at 200 ppm in the series with Phakopsora pachyrhizi (Phakopsora pachyrhizi (Soybean rust), read-out: control (%)) is 45%. In addition, the “% Parent Remaining @ 3 hrs” value in series [12] is 9%.

Turning to `CO/C=C(\Oc1cc(-n2cc(C(C)C)cn2)ccc1C)C(=O)OC` [Compound E-57, methyl (Z)-2-[5-(4-isopropylpyrazol-1-yl)-2-methyl-phenoxy]-3-methoxy-prop-2-enoate], the inhibition of growth at 20 ppm in [1], in [6], in [7], in series [8], in [9] and in [11] was at least 80% in each case. For the same compound, the pest or weed control at 200 ppm was at least 80% in the series on Plasmopara viticola; at least 80% in [2]; at least 80% in series [3]; at least 50% in the series on Phakopsora pachyrhizi (setting [13]); at least 80% in series [4]; at least 80% in the series with Alternaria solani. Besides, the pest or weed control at 200 ppm (in the series with Phytophthora infestans; in [5]; in series [10]) was at least 80% in each case.

In the case of `CO/C=C(\Oc1cc(-n2cc(I)cn2)ccc1C)C(=O)OC` [Compound E-60, methyl (Z)-2-[5-(4-iodopyrazol-1-yl)-2-methyl-phenoxy]-3-methoxy-prop-2-enoate], the inhibition of growth at 20 ppm in series [1], in [6], in [7], in series [8], in [9] and in [11] was at least 80% in each case. The pest or weed control at 200 ppm (in the series with Plasmopara viticola; in series [2]; in series [3]; in series [4]; with Alternaria solani; in the series with Phytophthora infestans) was at least 80% throughout. Moreover, the pest or weed control at 200 ppm in [5] and in series [10] was at least 80% each time.

Consider `CO/C=C(\Oc1cc(C)cc(-n2ccc(C(F)(F)F)n2)c1)C(=O)OC` [Compound E-34, methyl (Z)-3-methoxy-2-[3-methyl-5-[3-(trifluoromethyl)pyrazol-1-yl]phenoxy]prop-2-enoate], for which the inhibition of growth at 20 ppm in [1], in series [6], in series [7], in series [8], in [9] and in [11] was at least 80% throughout. Besides, the pest or weed control at 200 ppm (in the series on Plasmopara viticola; in series [3]; in the series on Alternaria solani; with Phytophthora infestans; in series [5]; with Pyrenophora teres) was at least 80% in each case. Moreover, in series [10], the pest or weed control at 200 ppm was at least 80%.
